Experimental data from the NIST ThermoML archive (doi:10.1016/j.jct.2019.105878).

Assay: osmotic coefficient (dimensionless); mn = molality of the nth substance listed, in mol/kg
Settings: 298.15 K, 97.5 kPa, Liquid, vapour pressure osmometry

O=Cc1ccc(CO)o1 [5-(hydroxymethyl)furan-2-carbaldehyde] + O
Settings	osmotic coefficient
m1 = 0.496	0.85
m1 = 0.991	0.73
m1 = 1.483	0.635
m1 = 1.98	0.572
m1 = 2.473	0.521
m1 = 2.967	0.462
m1 = 3.459	0.442
m1 = 3.95	0.396
m1 = 4.444	0.378
m1 = 4.935	0.37
